Experimental data taken from US11684675B2, “Dimeric collagen hybridizing peptides and methods of using” (University of Utah Research Foundation, priority 2015, dated 2023).

What was measured:
porcine gelatin = assay: SPR gelatin capture by immobilized biotinylated CHPs; assay type: binding; conditions: gelatin 25 μg/mL
Procedure: FIGS. 7A and 7B show SPR data for porcine gelatin capture by immobilized CHPs. […] Gelatin was applied to the sensor surface during the association phase, followed by elution with blank during dissociation phase. Association occurred for 981 s, followed by dissociation for 1800 s. Values were normalized to a 100% biotin lane, and were adjusted to the mass of peptide immobilized in each well. (A) Preheated (80° C., 10 min), quenched (0° C., 30 s) gelatin (25 μg/mL) was applied to the sensor at an ambient temperature of 37° C. (B) Preheated (80° C., 10 min), quenched (0° C., 30 s) gelatin (25 μg/mL) was applied to the sensor at an ambient temperature of 15° C.
Surface Plasmon Resonance (SPR). […] However, there were major differences observed during the association phase. At 37° C., there was a much higher amount of gelatin adsorbed to all the peptides tested on the surface when compared to 15° C. […] At 15° C., gelatin adsorbed to the surface at a much slower rate. […] However, this lower adsorption rate can be due to a reduced diffusion rate near the surface or a more condensed gelatin structure at this lower temperature.
Dimeric CHP is able to hybridize effectively with denatured collagens with faster folding kinetics than current, monomeric CHPs. Surface plasmon resonance (SPR) was used to measure the ability of the CHPs to trap denatured collagen from solution.

[1] = tested on: crosslinked gelatin films; assay: Binding of CF-labelled CHPs to crosslinked gelatin films at 37° C. with and without preheating; set-up: species or system porcine; conditions: 20 μM, 37° C. overnight, PBS wash 20 h, FIG. 6C
Procedure: FIGS. 3A and 3B show the affinity of CHPs to gelatin films as monitored by fluorescence of conjugated CF fluorophore (492 ex, 533 em). (A) Fluorescence of CHPs bound to crosslinked gelatin after incubation at 37° C. overnight with no workup. (B) Fluorescence of CHPs remaining in crosslinked gelatin after incubation at 37° C. overnight without preheating, followed by washing with 1×PBS at 37° C. (20 h).
(A) Fraction of peptide remaining in a crosslinked gelatin film after 17 h at 25° C. (10 total washes). Values are normalized to fluorescence remaining in wells after 6 washes at 4° C. (>95% removal of CHPs 9r, 6r, and 5r). All washes performed in 1×PBS. (B) CHPs (15 μM) premixed into 10% porcine gelatin and preheated to 80° C. (10 min) before being added to a 96 well plate. Excess CHP-gelatin mixture was removed, then the premix was incubated at 4° C. for 2 hours. Wells were washed at 4° C., 5 times (>95% removal of CHPs 9r, 6r, and 5r). Wells were then washed for 2 hours (6 washes total) at 25° C. to monitor CHP remaining in the well. (C) Fluorescence of CHPs remaining in crosslinked gelatin after incubation at 37° C. overnight without preheating, followed by washing with 1×PBS at 37° C. (20 h). (D) Fluorescence of CHPs remaining in crosslinked gelatin after incubation at 37° C. overnight (80° C. preheating, 10 min), followed by washing with 1×PBS at 37° C. (20 h).
Dimeric CHPs were assessed for their ability to bind to collagen strands in crosslinked gelatin films. CHP solutions (20 μM in PBS) were added directly to the crosslinked gelatin films. For heated experiments, CHPs were preheated to 80° C. for 10 minutes before addition. Peptides were allowed to fully equilibrate with the gel at 37° C. overnight before being exposed to repeated washes (4×, PBS) at 37° C. to fully remove any non-specifically bound peptide and to determine binding level at body temperature. To measure retention, peptides were bound as previously described, but were subsequently washed with PBS 37° C. (5×1 h, 1×12 h) to measure retention within the gelatin films. […] Additionally, after a period of 20 hours, higher level of the dimeric CHP remained in the gelatin compared to the monomeric CHP.
A major limitation of the use of CHP in vivo, is the requirement of the triple helix to be fully disassembled before being injected. […] For this test, peptide solutions were allowed to warm to room temperature before being added (50 μL, 20 μM) to previously prepared crosslinked gelatin films. Solutions were then incubated at 37° C. overnight before removing the solution. Wells were washed at 37° C. with PBS (20 h) to determine binding. Preheated samples were prepared and incubated in the same way, but with preheating (80° C., 10 min) before being added to the crosslinked gelatin wells.

Substance: [(GPO)6G3)2KG [6d]
- ability to bind gelatin (porcine gelatin; 15° C.): only able to bind gelatin at a rate comparable to the monomeric CHPs
- ability to bind gelatin (porcine gelatin; 37° C.): higher ability to bind gelatin than that of an equivalent number of strands in their monomeric counterparts
- binding to gelatin wells at 37° C. without preheating [1]: bind more significantly than the GPO9 monomer without preheating
